Source: patent publication US12070444B2, “Modulation of molecular markers using S-equol” (Board of Regents, The University of Texas System, priority 2020, dated 2024)
Entries after “also recorded” stand apart in the source; their conditions may differ.

What was measured:
[1] = system: B16 melanoma tumor cell line; assay: B16 melanoma tumor challenge in mice treated with S-equol and/or anti-PD-1 antibody; format: in vivo, mouse
Method: FIG. 4. A schema for combination therapy. Mice were administered one of: (1) vehicle+rat IgG2a; (2) S-equol+rat IgG2a; (3) vehicle+anti-PD-1 antibody; or (4) S-equol+anti-PD-1 antibody. Mice receiving anti-PD-1 antibody were given 250 μg every 3 days, intraperitoneally, and mice receiving S-equol were given 50 mg/kg per day by oral gavage. Treatment started 7 days after tumor challenge with B16 melanoma.
Melanoma cell line B16 was tested to determine the effects of a PD-1 inhibitor, S-equol and a combination of the two therapies on tumor growth. This experimental design includes four arms: (1) controls, (2) αPD-1, (3) S-equol, and (4) αPD-1+S-equol (FIG. 4) by injecting into mice 5×10^5 cells subcutaneously. Antibodies were administered α-PD-1: 250 μg/mice by i.p. injection every 3 days and S-equol was administered at 50 mg/kg/day by oral gavage. Treatment began 7 day after tumor challenge. Tumor growth trajectories were compared within treated mice using a repeated measures linear mixed model. The primary outcome was the logarithm of the tumor size, and the test statistic is the treatment×time interaction. Tumors were measured about 10 times. The number of recipient mice use used in the studies (n=6 per group) was based on the above study.
For tumor studies, 8 to 10-week-old mice were used. M-Wnt (5 Å˜10^5 cells), E0771 (5 Å˜10^5 cells), AT-3 (2 Å˜10^5 cells), and EMT-6 (5 Å˜10^5 cells) tumor cells were subcutaneously inoculated into the fourth mammary pad. B16F10 (0.5 Å˜10^6 cells) and MC38 (5 Å˜10^6 cells) tumor cells were subcutaneously inoculated into the back flank. Tumor volume was measured with calipers (0.5 Å˜length Å˜width2) on the indicated days. Anti-IgG2a (BioXcell, Cat: #BE0146) and anti-PD-1 (BioXcell, Cat: #BE0089) antibodies were administered through intraperitoneal (i.p.) injection at a dose of […] every 3 days starting on day 7 after tumor challenge for the duration as indicated. S-equol (from Ausio Pharmaceuticals) was administered daily by oral gavage at 50 mg/kg beginning on the day of tumor challenge and continuing throughout the entire tumor growth experiments.

[2] = system: MDA-MB-231 cell-derived xenograft tumor; assay: MDA-MB-231 xenograft in athymic nude mice; format: in vivo
Method: Further work in a preclinical animal model supports the notion of using S-equol to treat TNBC breast cancer. In immunocompromised mouse xenograft experiments, which used MDA-MB-231, a human TNBC breast cancer cell line, growth of tumors was suppressed by 60% with S-equol treatment compared to control. 5×10^6 MDA-MB-231 cells were injected orthotopically into mammary gland fat pads of 6 week-old female athymic nude mice (Harlan). When the tumor masses reached 50 to 80 mm^3 (about one week after the inoculation), the mice were given daily subcutaneous injections of S-equol (20 or 60 mg/kg per day) or PBS as a vehicle control. Tumor development was followed by caliper measurements along two orthogonal axes: length (L) and width (W) and volume (V) was estimated by the formula V=[L×(W^2)]/2. […] Representative tumor sections from vehicle control and S-equol-treated mice were tested for Ki-67 expression to assess cell proliferation, and for ERβ ([…]. Statistical significance in the experiments was assessed by two-tailed Student's t test. In all assays, p<0.05 was considered statistically significant. The results of these experiments are shown in FIGS. 16 and 20. See, Yuan et al. 2016 listed below, which is incorporated by reference herein for all purposes.

Compound: Oc1ccc([C@H]2COc3cc(O)ccc3C2)cc1 [S-equol]
- tumor weight ([1]; B16 melanoma (FIG. 8A)): reduce tumor weight compared to control
- tumor response (growth and tumor weight) ([1]; B16 melanoma, Example 14, four arms (FIG. 26B-C)): responded
- tumor volume ([1]; B16 melanoma, anti-PD-1 250 μg every 3 days i.p., S-equol 50 mg/kg per day oral gavage, over 12 days post-challenge (FIG. 6)): reduce tumor volume compared to control
- tumor volume ([1]; B16 melanoma, anti-PD-1 250 μg every 3 days i.p., S-equol 50 mg/kg per day oral gavage, over 19 days post-challenge (FIG. 7)): reduce tumor volume compared to control
- tumor volume ([1]; B16 melanoma, legend headed over 16 days, text says over 12 days post-challenge (FIG. 9A)): reduce tumor volume compared to control
- xenograft tumor growth ([2]; S-equol vs vehicle (FIG. 16B, FIG. 20)): inhibited; also recorded: reduces the growth of TNBC cells
- growth of tumors suppressed compared to control ([2]; daily s.c. S-equol 20 or 60 mg/kg per day vs PBS): 60%
